Measurements from patent publication EP1077981B1, “NOVEL CEPHALOSPORIN COMPOUNDS, PROCESSES FOR PREPARATION THEREOF AND ANTIMICROBIAL COMPOSITIONS CONTAINING THE SAME” (LG CHEMICAL LIMITED, priority 1998, dated 1999).
≈ marks a conversion by molar mass, not a printed value.

Key:
Experiment in all cases: MIC against standard strains (agar dilution)
Type in all cases: cell-based
[1] = tested on: Staphylococcus aureus 77; details: Staphylococcus aureus 77; Mueller-Hinton agar, 20 hours at 37°C; read-out: MIC
Procedure, shortened: (§1)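 Agar dilution, Mueller-Hinton; 2-fold compound series; inoculum 10^7 cfu/mℓ; 37°C, 20 h; MIC read as lowest inhibitory concentration.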

[2] = tested on: Acinetobacter calcoaceticu 15473; details: Acinetobacter calcoaceticu 15473; Mueller-Hinton agar, 20 hours at 37°C; read-out: MIC
Procedure, shortened: as §1

[3] = tested on: Escherichia coli 10536; details: Escherichia coli 10536; Mueller-Hinton agar, 20 hours at 37°C; read-out: MIC
Procedure, shortened: as §1

[4] = tested on: Staphylococcus aureus giorgio; details: Staphylococcus aureus giorgio; Mueller-Hinton agar, 20 hours at 37°C; read-out: MIC
Procedure, shortened: as §1

[5] = tested on: Enterobacter cloacae P99; details: Enterobacter cloacae P99; Mueller-Hinton agar, 20 hours at 37°C; read-out: MIC
Procedure, shortened: as §1

[6] = tested on: Klebsiella pneumoniae 2011E; details: Klebsiella pneumoniae 2011E; Mueller-Hinton agar, 20 hours at 37°C; read-out: MIC
Procedure, shortened: as §1

[7] = tested on: Moraxella catarrhalis C2431; details: Moraxella catarrhalis C2431; Mueller-Hinton agar, 20 hours at 37°C; read-out: MIC
Procedure, shortened: as §1

[8] = tested on: Pseudomonas aeruginosa 1912E; details: Pseudomonas aeruginosa 1912E; Mueller-Hinton agar, 20 hours at 37°C; read-out: MIC
Procedure, shortened: as §1

[9] = tested on: Proteus vulgaris 6059; details: Proteus vulgaris 6059; Mueller-Hinton agar, 20 hours at 37°C; read-out: MIC
Procedure, shortened: as §1

[10] = tested on: Staphylococcus epidermidi 887E; details: Staphylococcus epidermidi 887E; Mueller-Hinton agar, 20 hours at 37°C; read-out: MIC
Procedure, shortened: as §1

CO/N=C(\C(=O)NC1C(=O)N2C(C(=O)O)=C(Sc3cc(N)nc(N)n3)CSC12)c1csc(N)n1 (stereo not shown) [Compound No. 25, 7-[(Z)-2-(2-amino-thiazol-4-yl)-2-methoxyimino-acetylamino]-3-(2,6-diamino-pyrimidin-4-ylsulfanyl)-8-oxo-5-thia-1-azabicyclo[4,2,0]oct-2-ene-2-carboxylic acid]
MIC [1]: 4 µg/mL (≈ 7.64 µM)
MIC [2]: 64 µg/mL (≈ 122 µM)
MIC [3]: 0.063 µg/mL (≈ 0.12 µM)
MIC [4]: 0.5 µg/mL (≈ 0.955 µM)
MIC [5]: > 64 µg/mL
MIC [6]: 0.5 µg/mL (≈ 0.955 µM)
MIC [7]: ≤ 8 ng/mL
MIC [8]: 16 µg/mL (≈ 30.6 µM)
MIC [9]: 0.016 µg/mL (≈ 0.0306 µM)
MIC [10]: 8 µg/mL (≈ 15.3 µM)
